# Assay results taken from patent US20080248131A1 (Metaproteomics, LLC, priority 2005, published 2008).
# Assays:
# [1] = system: adiponectin secretion, 3T3-L1 adipocytes; test: Adiponectin secretion in LPS/3T3-L1 adipocytes; assay type: cell-based, murine
# [2] = system: adiponectin secretion, 3T3-L1 adipocytes; test: Adiponectin secretion from insulin-resistant 3T3-L1 adipocytes; assay type: cell-based, murine
# [3] = system: IL-6 secretion, 3T3-L1 adipocytes; test: IL-6 secretion from TNFα-treated 3T3-L1 adipocytes; conditions: 10 ng TNFα/ml
# [4] = system: adiponectin secretion, 3T3-L1 adipocytes; test: Adiponectin secretion from TNFα-treated 3T3-L1 adipocytes; assay type: cell-based, murine; conditions: 10 ng TNFα/ml
# Protocol: 3T3-L1 cells were seeded at an initial density of 1×10^4 cells/cm^2 in 96-well plates. For two days, the cells were allowed grow to reach confluence. Following confluence, the cells were forced to differentiate into adipocytes by the addition of differentiation medium; this medium consisted of (1) 10% FBS/DMEM (high glucose); (2) 0.5 mM methylisobutylxanthine; (3) 0.5 μM dexamethasone and (4) 10 μg/ml insulin (MDI medium). From Day 3 through Day 5, the medium was changed to post-differentiation medium consisting of 10% FBS in DMEM. […] On Day 6, the supernatant medium was sampled for adiponectin determination.
# Statistical Calculations and Interpretation—All assays were preformed in duplicate. […] Differences among the doses and test agents were determined using the Student's t-test without correction for multiple comparisons; the nominal five percent probability of a type I error was selected.
# [5] = system: NF-kBp65 nuclear translocation; test: Nuclear NF-kBp65 in TNFα-treated 3T3-L1 adipocytes; assay type: cell-based, murine; conditions: three or 24 hours
# Protocol: Cell Culture and Treatment—Following differentiation 3T3-L1 adipocytes were maintained in post-differentiation medium for an additional 40 days. […] Hops derivatives and the positive control pioglitazone were tested at concentrations of 2.5, and 5.0 μg/ml. Test materials were added 1 hour prior to and nuclear extracts were prepared three and 24 hours following treatment with TNFα.
# ELISA—3T3-L1 adipocytes were maintained in growth media for 40 days following differentiation. Nuclear NF-kBp65 was determined using the TransAM™ NF-kB kit from Active Motif (Carlsbad, Calif.) was used with no modifications. Jurkat nuclear extracts provided in the kit were derived from cells cultured in medium supplemented with 50 ng/ml TPA (phorbol, 12-myristate, 13 acetate) and 0.5 μM calcium ionophore A23187 for two hours at 37° C. immediately prior to harvesting.
# Protein assay—Nuclear protein was quantified using the Active Motif Fluorescent Protein Quantification Kit.
# DBA/J mice = test: Collagen induced rheumatoid arthritis murine model, arthritic index; assay type: in vivo, mouse; conditions: 10 mg/kg
# Protocol: The mice were injected intradermally on day 0 with a mixture containing 100 μg of type II collagen and 100 μg of Mycobacterium tuberculosis in squalene. A booster injection was repeated on day 21. Mice were examined on days 22-27 for arthritic signs with nonresponding mice removed from the study.
# Arthritic symptomology was assessed (scored 0-4) for each paw using a arthritic index as described below. Under this arthritic index 0=no visible signs; 1=edema and/or erythema: single digit; 2=edema and or erythema: two joints; 3=edema and or erythema: more than two joints; and 4=severe arthritis of the entire paw and digits associated with ankylosis and deformity.
# [6] = system: human PI3K-β, PI3K-γ, and PI3K-δ; test: PI3K isoform inhibition (Example 3); assay type: biochemical; conditions: 50 μg/ml
# Protocol: Additionally examined was an Acacia nilotica heartwood extract. All compounds were tested at 50 μg/ml. The results are presented graphically as FIG. 3. […] Mg-IAA was approximately 3-fold more inhibitory to PI3K-β than to PI3K-γ or PI3K-δ.
smiles,measurement,setting,value
"CC(=O)Oc1ccccc1C(=O)O [Aspirin, aspirin]","adiponectin secretion in LPS-treated adipocytes, in words",[1],failed to induce adiponectin secretion
CC(C)CCC1=C(O)C(C(=O)C(C)C)=C(O)C(CCC(C)C)(CCC(C)C)C1=O [hexahydro colupulone],concentration of maximal observed adiponectin secretion,[2],12.5 µg/mL
COc1ccc2c(c1)c(CC(=O)O)c(C)n2C(=O)c1ccc(Cl)cc1 [indomethacin],"IL-6 secretion in presence of TNFα, in words",[3],no anti-inflammatory effect
CCc1ccc(CCOc2ccc(CC3SC(=O)NC3=O)cc2)nc1 (centres unmarked) [pioglitazone],"maximal restoration of adiponectin secretion, times the TNFα treatment",[4],1.47 times
same,"nuclear NF-kBp65, in words",[5],did not inhibit
C[C@]12C=CC(=O)C=C1CC[C@@H]1[C@@H]2[C@@H](O)C[C@@]2(C)[C@H]1CC[C@]2(O)C(=O)CO [prednisolone],days with significant reduction of arthritic index,DBA/J mice,days 30-42
O=C(O)c1ccccc1O [salicylic acid],"adiponectin secretion in LPS-treated adipocytes, in words",[1],failed to induce adiponectin secretion
COc1cc(O)c(CC=C(C)C)c(O)c1C(=O)/C=C/c1ccc(O)cc1 [xanthohumol],"effect on PI3K isoforms, in words",[6],more inhibitory to PI3K-γ than to PI3K-β or PI3K-δ
